For one test, the target named is T1, QsAMT1.2-like (QsAMT1.2) (Quercus suber, UniProt Z9N9G6J3T1).
T1 construct: full-length cDNA from ectomycorrhizal cork oak roots in pDR196, expressed in yeast strain 31019b (mep1 mep2 mep3 deleted)
T1 sequence (Z9N9G6J3T1 1-510): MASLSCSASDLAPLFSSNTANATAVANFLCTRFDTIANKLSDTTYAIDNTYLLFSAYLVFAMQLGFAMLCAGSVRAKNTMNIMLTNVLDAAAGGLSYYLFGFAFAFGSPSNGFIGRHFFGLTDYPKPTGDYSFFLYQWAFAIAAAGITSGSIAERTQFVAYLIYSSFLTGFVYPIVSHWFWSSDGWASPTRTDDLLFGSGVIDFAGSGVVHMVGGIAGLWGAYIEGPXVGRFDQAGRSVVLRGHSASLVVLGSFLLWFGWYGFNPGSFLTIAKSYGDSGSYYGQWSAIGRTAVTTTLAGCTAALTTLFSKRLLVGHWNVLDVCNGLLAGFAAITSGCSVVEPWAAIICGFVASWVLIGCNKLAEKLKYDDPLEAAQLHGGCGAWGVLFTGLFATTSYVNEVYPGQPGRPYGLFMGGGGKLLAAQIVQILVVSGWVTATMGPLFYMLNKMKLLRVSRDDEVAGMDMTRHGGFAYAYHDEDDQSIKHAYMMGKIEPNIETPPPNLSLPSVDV
Description: […]-methylammonium uptake in transformed yeast, Michaelis-Menten and Lineweaver-Burk. The following applies: labelled compound; yeast 31019b; substrate of the Km taken from the methods; read-out: apparent Km. It counts as cell-based.

For another test, the target named is T2, QsAMT3.2-like (QsAMT3.2) (Quercus suber, UniProt Z9KUH6IWZ3).
T2 construct: full-length cDNA from ectomycorrhizal cork oak roots in pDR196, expressed in yeast strain 31019b (mep1 mep2 mep3 deleted)
T2 sequence (Z9KUH6IWZ3 1-486): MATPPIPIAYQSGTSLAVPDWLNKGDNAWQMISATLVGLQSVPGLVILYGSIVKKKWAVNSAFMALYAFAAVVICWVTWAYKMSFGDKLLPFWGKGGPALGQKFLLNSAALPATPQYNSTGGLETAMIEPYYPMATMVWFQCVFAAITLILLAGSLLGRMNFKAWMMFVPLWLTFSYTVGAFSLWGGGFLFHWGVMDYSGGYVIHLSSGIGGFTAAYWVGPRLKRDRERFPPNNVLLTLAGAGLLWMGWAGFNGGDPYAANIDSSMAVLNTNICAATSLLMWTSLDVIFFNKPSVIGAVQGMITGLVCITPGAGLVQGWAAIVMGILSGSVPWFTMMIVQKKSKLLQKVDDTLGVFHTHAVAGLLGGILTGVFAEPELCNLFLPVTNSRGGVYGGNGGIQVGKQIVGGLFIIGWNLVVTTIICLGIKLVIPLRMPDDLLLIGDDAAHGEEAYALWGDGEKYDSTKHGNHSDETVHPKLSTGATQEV
The test is described as above. It counts as cell-based. The conditions noted are these: labelled compound; yeast 31019b; substrate of the Km taken from the methods; read-out: apparent Km.

In general, Km refers to the substrate concentration at which the rate is half of its maximum.

Consider `CN` [[14C]-methylammonium], for which the Michaelis constant (Km) was found to be 667 µM on QsAMT1.2-like (QsAMT1.2) and 0.6 µM on QsAMT3.2-like (QsAMT3.2).

The values are drawn from article PMC9823632, “Nitrogen Acquisition and Transport in the Ectomycorrhizal Symbiosis—Insights from the Interaction between an Oak Tree and Pisolithus tinctorius” (Plants, 2022).
